In ChEMBL document CHEMBL2390843, “Design, synthesis and antitumour activity of bisquinoline derivatives connected by 4-oxy-3-fluoroaniline moiety” (Eur J Med Chem, 2013) one finds IC50 data, which are given here for 33 molecules.

The structures appear in SMILES notation.

The nature of experiment [1]: Cytotoxicity against human U87MG cells after 72 hrs by MTT assay. In kind it is functional, cell-based, U-87MG ATCC. The settings on record: U-87 MG.
The next experiment relates to HT-29. The experiment in a line: Cytotoxicity against human HT-29 cells after 72 hrs by MTT assay. The settings on record: HT-29, 72 h. A general note: Tetrazolium dyes change colour on reduction, which living cells bring about.
The subject of another experiment is MKN-45. In words: Cytotoxicity against human MKN45 cells after 72 hrs by MTT assay. The settings on record: MKN-45, 72 h.
Experiment [2] can be described thus: Cytotoxicity against human H460 cells after 72 hrs by MTT assay. The settings on record: NCI-H460, 72 h.
The next experiment deals with SMMC-7721. The experiment in a line: Cytotoxicity against human SMMC7721 cells after 72 hrs by MTT assay. The settings on record: SMMC-7721, 72 h.

One may read the IC50 as the concentration needed to halve the response being measured. The low end stands for higher potency, the high end for lower potency. On to `COc1cc2c(Oc3ccc(NC(=O)c4cc(-c5ccc(C)cc5)nc5ccc(F)cc45)cc3F)ccnc2cc1OCCCN1CCOCC1`, for which the IC50 in experiment [1] turned out to be 820 nM; with HT-29, 390 nM; in the experiment on MKN-45, 320 nM; in experiment [2] it was 440 nM.

Take `COc1cc2c(Oc3ccc(NC(=O)c4cc(-c5cccc(Cl)c5)nc5ccc(F)cc45)cc3F)ccnc2cc1OCCCN1CCC(C)CC1`: the IC50 came out at 110 nM in experiment [1], 92 nM with HT-29, 10 nM in the experiment on MKN-45 and 60 nM in experiment [2].

As for `COc1cccc(-c2cc(C(=O)Nc3ccc(Oc4ccnc5cc(OCCCN6CCC(C)CC6)c(OC)cc45)c(F)c3)c3cc(F)ccc3n2)c1`, the IC50 in experiment [1] is 840 nM; with HT-29, 1210 nM; with MKN-45, 730 nM; in experiment [2], 840 nM.

On to `COc1cc2c(Oc3ccc(NC(=O)c4cc(-c5ccc(C)cc5)nc5ccc(F)cc45)cc3F)ccnc2cc1OCCCN1CCC(C)CC1`, for which the IC50 in experiment [1] worked out at 2000 nM; in the experiment on HT-29, 420 nM; in the experiment on MKN-45, 260 nM; in experiment [2] it was 480 nM.

As for `COc1cc2c(Oc3ccc(NC(=O)c4cc(-c5ccccc5)nc5ccc(F)cc45)cc3F)ccnc2cc1OCCCN1CCCC1`, the IC50 turned out to be 960 nM in experiment [1], 160 nM in the experiment on HT-29, 110 nM in the experiment on MKN-45 and 90 nM in experiment [2].

Consider `COc1cc2c(Oc3ccc(NC(=O)c4cc(-c5cccc(Cl)c5)nc5ccc(F)cc45)cc3F)ccnc2cc1OCCCN1CCCC1`, for which the IC50 in experiment [1] was 990 nM; in the experiment with HT-29 it was 670 nM; in the experiment with MKN-45, 67 nM; in experiment [2], 72 nM.

Consider `COc1ccc(-c2cc(C(=O)Nc3ccc(Oc4ccnc5cc(OCCCN6CCCC6)c(OC)cc45)c(F)c3)c3cc(F)ccc3n2)cc1`, for which the 50% inhibitory concentration (IC50) was 930 nM in experiment [1], 610 nM with HT-29, 170 nM in the experiment on MKN-45 and 250 nM in experiment [2].

For the molecule `COc1cc2c(Oc3ccc(NC(=O)c4cc(-c5ccccc5)nc5ccccc45)cc3F)ccnc2cc1OCCCN1CCC(C)CC1`, the IC50 came out at 920 nM in experiment [1]; 160 nM with SMMC-7721; 120 nM in the experiment with HT-29; 19 nM in the experiment with MKN-45; 68 nM in experiment [2].

`COc1ccc(-c2cc(C(=O)Nc3ccc(Oc4ccnc5cc(OCCCN6CCC(C)CC6)c(OC)cc45)c(F)c3)c3ccccc3n2)cc1`: the IC50 with SMMC-7721 was 450 nM; in the experiment with HT-29 it was 1110 nM; with MKN-45 it was 320 nM; in experiment [2], 110 nM.

Regarding `COc1cc2c(Oc3ccc(NC(=O)c4cc(-c5ccc(C)cc5)nc5ccccc45)cc3F)ccnc2cc1OCCCN1CCC(C)CC1`, the IC50 in the experiment with SMMC-7721 worked out at 1260 nM; in the experiment with HT-29 it was 3150 nM; in the experiment with MKN-45 it was 770 nM; in experiment [2], 880 nM.

Regarding `COc1cc2c(Oc3ccc(NC(=O)c4cc(-c5ccc(Cl)c(Cl)c5)nc5ccccc45)cc3F)ccnc2cc1OCCCN1CCCC1`, the IC50 in the experiment with SMMC-7721 was 340 nM; in the experiment on HT-29, 1960 nM; with MKN-45 it was 170 nM; in experiment [2] it was 400 nM.

For `COc1cccc(-c2cc(C(=O)Nc3ccc(Oc4ccnc5cc(OCCCN6CCCC6)c(OC)cc45)c(F)c3)c3ccccc3n2)c1`, the IC50 with SMMC-7721 was 790 nM; with HT-29, 1020 nM; in the experiment with MKN-45, 430 nM; in experiment [2], 290 nM.

`COc1cc2c(Oc3ccc(NC(=O)c4cc(-c5ccc(C)cc5)nc5ccccc45)cc3F)ccnc2cc1OCCCN1CCCC1`: the IC50 amounted to 520 nM with SMMC-7721, 850 nM with HT-29, 300 nM with MKN-45 and 240 nM in experiment [2].

Regarding `COc1cc2c(Oc3ccc(NC(=O)c4cc(-c5ccccc5)nc5ccc(F)cc45)cc3F)ccnc2cc1OCCCN1CCCCC1`, the half-inhibitory concentration (IC50) in experiment [1] was 690 nM; with HT-29, 120 nM; in the experiment on MKN-45, 30 nM; in experiment [2], 32 nM.

Consider `COc1cccc(-c2cc(C(=O)Nc3ccc(Oc4ccnc5cc(OCCCN6CCCCC6)c(OC)cc45)c(F)c3)c3cc(F)ccc3n2)c1`, for which the IC50 in experiment [1] is 1610 nM; in the experiment with HT-29, 2500 nM; in the experiment on MKN-45, 690 nM; in experiment [2], 1000 nM.

Consider `COc1cc2c(Oc3ccc(NC(=O)c4cc(-c5ccc(C)cc5)nc5ccc(F)cc45)cc3F)ccnc2cc1OCCCN1CCCCC1`, for which the 50% inhibitory concentration (IC50) in experiment [1] was found to be 1050 nM; in the experiment on HT-29, 500 nM; with MKN-45 it was 170 nM; in experiment [2], 260 nM.

As for `COc1ccc(-c2cc(C(=O)Nc3ccc(Oc4ccnc5cc(OCCCN6CCCCC6)c(OC)cc45)c(F)c3)c3cc(F)ccc3n2)cc1`, the IC50 in experiment [1] came to 1100 nM; with HT-29, 600 nM; with MKN-45 it was 260 nM; in experiment [2], 240 nM.

As to `COc1cc2c(Oc3ccc(NC(=O)c4cc(-c5ccc(Cl)cc5Cl)nc5ccc(F)cc45)cc3F)ccnc2cc1OCCCN1CCCCC1`, the IC50 came out at 1040 nM in experiment [1], 530 nM in the experiment on HT-29, 250 nM with MKN-45 and 310 nM in experiment [2].

Regarding `COc1cc2c(Oc3ccc(NC(=O)c4cc(-c5ccc(F)cc5)nc5ccc(F)cc45)cc3F)ccnc2cc1OCCCN1CCOCC1`, the IC50 was found to be 2150 nM in experiment [1], 250 nM in the experiment with HT-29, 51 nM in the experiment with MKN-45 and 27 nM in experiment [2].

Take `COc1cc2c(Oc3ccc(NC(=O)c4cc(-c5cccc(Cl)c5)nc5ccc(F)cc45)cc3F)ccnc2cc1OCCCN1CCOCC1`: the half-maximal inhibitory concentration (IC50) in experiment [1] turned out to be 1060 nM; with HT-29, 1200 nM; with MKN-45, 60 nM; in experiment [2] it was 68 nM.

Take `COc1cc2c(Oc3ccc(NC(=O)c4cc(-c5ccccc5)nc5ccccc45)cc3F)ccnc2cc1OCCCN1CCCCC1`: the IC50 in experiment [1] was determined as 1490 nM; with SMMC-7721, 290 nM; with HT-29, 530 nM; with MKN-45 it was 15 nM; in experiment [2] it was 110 nM.

On to `COc1ccc(-c2cc(C(=O)Nc3ccc(Oc4ccnc5cc(OCCCN6CCCCC6)c(OC)cc45)c(F)c3)c3ccccc3n2)cc1`, for which the IC50 in experiment [1] came out at 1360 nM; with SMMC-7721, 210 nM; with HT-29 it was 690 nM; with MKN-45 it was 210 nM; in experiment [2] it was 290 nM.

Regarding `COc1cccc(-c2cc(C(=O)Nc3ccc(Oc4ccnc5cc(OCCCN6CCCCC6)c(OC)cc45)c(F)c3)c3ccccc3n2)c1`, the IC50 in the experiment on SMMC-7721 is 380 nM; in the experiment on HT-29, 1740 nM; in the experiment with MKN-45 it was 360 nM; in experiment [2] it was 210 nM.

Consider `COc1cc2c(Oc3ccc(NC(=O)c4cc(-c5ccc(F)cc5)nc5ccccc45)cc3F)ccnc2cc1OCCCN1CCCCC1`, for which the IC50 in experiment [1] was found to be 980 nM; in the experiment with SMMC-7721, 74 nM; with HT-29 it was 130 nM; in the experiment with MKN-45, 28 nM; in experiment [2] it was 21 nM.

On to `COc1cc2c(Oc3ccc(NC(=O)c4cc(-c5cccc(Cl)c5)nc5ccccc45)cc3F)ccnc2cc1OCCCN1CCCCC1`, for which the IC50 in experiment [1] came out at 150 nM; in the experiment on SMMC-7721, 30 nM; in the experiment with HT-29, 62 nM; in the experiment with MKN-45, 11 nM; in experiment [2], 11 nM.

In the case of `COc1cc2c(Oc3ccc(NC(=O)c4cc(-c5ccc(Cl)c(Cl)c5)nc5ccccc45)cc3F)ccnc2cc1OCCCN1CCCCC1`, the IC50 in the experiment on SMMC-7721 came out at 770 nM; in the experiment on HT-29, 1210 nM; in the experiment with MKN-45 it was 730 nM; in experiment [2] it was 820 nM.

On to `COc1cc2c(Oc3ccc(NC(=O)c4cc(-c5ccccc5)nc5ccccc45)cc3F)ccnc2cc1OCCCN1CCOCC1`, for which the IC50 in experiment [1] is 1140 nM; in the experiment on SMMC-7721 it was 330 nM; in the experiment on HT-29, 1520 nM; in the experiment with MKN-45, 91 nM; in experiment [2], 190 nM.

As for `COc1ccc(-c2cc(C(=O)Nc3ccc(Oc4ccnc5cc(OCCCN6CCOCC6)c(OC)cc45)c(F)c3)c3ccccc3n2)cc1`, the concentration for half-maximal inhibition (IC50) turned out to be 1180 nM with SMMC-7721, 3190 nM with HT-29, 160 nM with MKN-45 and 750 nM in experiment [2].

For the molecule `COc1cccc(-c2cc(C(=O)Nc3ccc(Oc4ccnc5cc(OCCCN6CCOCC6)c(OC)cc45)c(F)c3)c3ccccc3n2)c1`, the IC50 is 1130 nM in the experiment on SMMC-7721, 3050 nM with HT-29, 110 nM in the experiment on MKN-45 and 560 nM in experiment [2].

In the case of `COc1cc2c(Oc3ccc(NC(=O)c4cc(-c5cccc(Cl)c5)nc5ccccc45)cc3F)ccnc2cc1OCCCN1CCOCC1`, the IC50 amounted to 1470 nM in experiment [1]; 320 nM in the experiment with SMMC-7721; 1080 nM in the experiment with HT-29; 35 nM in the experiment on MKN-45; 80 nM in experiment [2].

As for `COc1cc2c(Oc3ccc(NC(=O)c4cc(-c5ccc(C(F)(F)F)cc5)nc5ccccc45)cc3F)ccnc2cc1OCCCN1CCOCC1`, the IC50 amounted to 1010 nM in experiment [1]; 100 nM in the experiment on SMMC-7721; 230 nM in the experiment on HT-29; 12 nM in the experiment on MKN-45; 68 nM in experiment [2].

On to `COc1cc2c(Oc3ccc(NC(=O)c4cc(-c5ccc(C)cc5)nc5ccccc45)cc3F)ccnc2cc1OCCCN1CCOCC1`, for which the IC50 in the experiment on SMMC-7721 came out at 1520 nM; in the experiment on HT-29 it was 3560 nM; in the experiment with MKN-45, 830 nM; in experiment [2] it was 1100 nM.

`COc1cc2c(Oc3ccc(NC(=O)c4cc(-c5cccc(Cl)c5)nc5ccccc45)cc3F)ccnc2cc1OCCCN1CCC(C)CC1`: the IC50 came to 580 nM in experiment [1]; 80 nM with SMMC-7721; 100 nM in the experiment on HT-29; 30 nM in the experiment with MKN-45; 65 nM in experiment [2].
